Laboratory results reported in patent US20130251730A1, “Compounds and Mixtures Influencing Inflammatory States” (SYMRISE AG, priority 2012, published 2013).
Marks after values point to notes of the source that are not given here.

Columns and labels:
[1] = test system: IL-6 release by human gingival fibroblastic cells (HGF-1); assay: Release of IL-6 by HGF-1 cells after stimulation with 10 μg/ml PG-LPS (magnetic bead assay); type: cell-based
Description: Human gingival fibroblastic cells (HGF-1) were sowed out in 24-well plates with 15,000 cells per well and cultivated for 3 to 5 days. DNEM containing 10% FBS, 1% penicillin/streptomycin and 4% glutamine was used as the medium. For determination of the anti-inflammatory action the cells were incubated with 10 μg/ml PG-LPS for 6 and 9 hrs. Subsequently, the release of IL-6 and IL-8 per magnetic bead was determined (Procarta, Affimetrix) using a MAGPIX equipment (Merck-Millipore) and analysed using the Milliplex software (Merck Millipore). In each case 4 samples with two technical replicates were measured. In addition to this control the cells were co-incubated with • (a) 10 μg/ml PG-LPS and also with • (b) solutions of the Herba Santa extract according to Example 1 (HS, containing 21.7% HED, […]); • (c) the flavonoid fraction (“FF”) obtained as a by-product according to Example 4 (containg 41.5% HED, […]); • (d) the extract rich in erionic acid (“ES”) according to Example 4 or isolated erionic acid B (according to Example 2) and • (e) erionic acid C according to Example 3 (each 0,1 μM, 1 μM and 10 μM).
(§1) After incubation the cell culture medium was transferred into an Eppendorf reaction vessel and at 4° C. for 10 min subjected to centrifugation (1000×g) in order to separate the cell depris. The upper layer was stored at −80° C. until the analysis started. The results of the release of IL-6 and […]

[2] = test system: IL-8 release by human gingival fibroblastic cells (HGF-1); assay: Release of IL-8 by HGF-1 cells after stimulation with 10 μg/ml PG-LPS (magnetic bead assay); type: cell-based
Description: Human gingival fibroblastic cells (HGF-1) were sowed out in 24-well plates with 15,000 cells per well and cultivated for 3 to 5 days. DNEM containing 10% FBS, 1% penicillin/streptomycin and 4% glutamine was used as the medium. For determination of the anti-inflammatory action the cells were incubated with 10 μg/ml PG-LPS for 6 and 9 hrs. Subsequently, the release of IL-6 and IL-8 per magnetic bead was determined (Procarta, Affimetrix) using a MAGPIX equipment (Merck-Millipore) and analysed using the Milliplex software (Merck Millipore). In each case 4 samples with two technical replicates were measured. In addition to this control the cells were co-incubated with • (a) 10 μg/ml PG-LPS and also with • (b) solutions of the Herba Santa extract according to Example 1 (HS, containing 21.7% HED, 0.1 μM, 1 μM and 10 μM calculated on HED); • (c) the flavonoid fraction (“FF”) obtained as a by-product according to Example 4 (containg 41.5% HED, 0,1 μM, 1 μM and 10 μM calculated on HED); • (d) the extract rich in erionic acid (“ES”) according to Example 4 or isolated erionic acid B (according to Example 2) and • (e) erionic acid C according to Example 3 (each 0,1 μM, 1 μM and 10 μM).
as §1

[3] = 10 μg/ml PG-LPS + 1 μg/ml test substance, 6 h
[4] = 10 μg/ml PG-LPS + 1 μg/ml test substance, 9 h
[5] = 10 μg/ml PG-LPS + 10 μg/ml test substance, 6 h
[6] = 10 μg/ml PG-LPS + 10 μg/ml test substance, 9 h
[7] = 10 μg/ml PG-LPS + 100 μg/ml test substance, 6 h
[8] = 10 μg/ml PG-LPS + 100 μg/ml test substance, 9 h
[9] = co-incubation with 10 μg/ml PG-LPS, 6 and 9 hrs, 0.1, 1 and 10 μM

CC(CCc1cc(C(=O)O)cc2c1OC(C)(C)C(O)C2)C(=O)/C=C/C(C)(C)O (centres unmarked) [Erionic acid B, 3-hydroxy-8-((E)-7-hydroxy-3,7-dimethyl-4-oxo-oct-5-enyl)-2,2-dimethyl-chroman-6-carboxylic acid]
IL-6 T/C [%] [1, 3]: 61.93* %
IL-6 T/C [%] [1, 4]: 77.51* %
IL-6 T/C [%] [1, 5]: 102.30%
IL-6 T/C [%] [1, 6]: 61.47*** %
IL-6 T/C [%] [1, 7]: 41.30** %
IL-6 T/C [%] [1, 8]: 102.74%
release of IL-6 [1, 9]: significant reduction
IL-8 T/C [%] [2, 3]: 79.91%
IL-8 T/C [%] [2, 4]: 77.33%
IL-8 T/C [%] [2, 5]: 134.54** %
IL-8 T/C [%] [2, 6]: 71.35%
IL-8 T/C [%] [2, 7]: 46.30** %
IL-8 T/C [%] [2, 8]: 116.34%
release of IL-8 [2, 9]: significant reduction
